Test results published in patent publication US9260467B2, “Sialic acid dimers” (priority 2011, dated 2016).

What follows are compounds tested against T1, Siglec-2 (CD22) (Homo sapiens, UniProt P20273) (assay: new affinity assay: displacement of biotinylated compound 155 from sialidase-treated Daudi cells, FACS with streptavidin-PE). Settings: Table II; rIP values set relative to compound 38; Daudi cells, displacement of compound 155.
T1 sequence (P20273 20-847): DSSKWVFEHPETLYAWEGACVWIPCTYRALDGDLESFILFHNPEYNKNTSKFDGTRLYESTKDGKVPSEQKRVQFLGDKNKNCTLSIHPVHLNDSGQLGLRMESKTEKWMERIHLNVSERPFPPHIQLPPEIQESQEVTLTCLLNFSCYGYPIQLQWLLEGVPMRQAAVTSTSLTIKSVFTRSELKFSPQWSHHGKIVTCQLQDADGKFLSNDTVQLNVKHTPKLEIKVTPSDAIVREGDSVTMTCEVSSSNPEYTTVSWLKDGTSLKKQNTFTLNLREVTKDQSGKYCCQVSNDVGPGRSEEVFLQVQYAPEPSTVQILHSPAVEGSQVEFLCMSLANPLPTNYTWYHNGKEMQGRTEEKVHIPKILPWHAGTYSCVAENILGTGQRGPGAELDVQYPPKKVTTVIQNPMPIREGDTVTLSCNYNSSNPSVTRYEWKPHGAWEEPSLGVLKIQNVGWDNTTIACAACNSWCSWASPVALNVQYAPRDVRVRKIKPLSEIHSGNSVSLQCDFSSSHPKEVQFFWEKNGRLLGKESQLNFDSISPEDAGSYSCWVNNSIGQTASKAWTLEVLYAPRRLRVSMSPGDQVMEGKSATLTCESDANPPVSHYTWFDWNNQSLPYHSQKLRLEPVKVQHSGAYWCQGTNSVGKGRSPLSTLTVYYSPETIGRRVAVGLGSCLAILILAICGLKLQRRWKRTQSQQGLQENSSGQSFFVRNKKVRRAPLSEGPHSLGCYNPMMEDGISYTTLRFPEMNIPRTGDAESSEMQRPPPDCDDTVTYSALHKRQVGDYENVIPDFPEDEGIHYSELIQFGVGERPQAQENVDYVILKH
Type: binding
Design: endogenous in cells; host or cells: Daudi (human B-cell lymphoma line)
Description: To determine the affinity of the compound of the formula (I), approximately 5×10^6 to 2×10^8 cells of the human B-cell lymphoma line “Daudi” were incubated with sialidase (A. ureafaciens) at 37° C. for 1 h (final concentration 0.1 unit/ml). […] Batches of 1-2×10^6 cells were transferred to sample vessels, and incubated on ice for 15 min with serial concentrations (10-fold dilutions, 1 mM to 1×10^−7 mM) of the substance under measurement (inhibitor). The reaction volume was 50 μl. Then 50 microliters of compound 155 (4-micromolar) were added, and incubation took place for 20 min Washing with FACS buffer (PBS, 0.1 BSA, 0.01% sodium azide) was followed by incubation with streptavidin-PE in the dark for 15 min, followed by washing and measurement of the bound amount of […] via the streptavidin-PE in the FACS. For the determination of 0% displacement of the compound 155, cells without inhibitor were measured. For the determination of 100% displacement, cells were measured without compound 155 and without inhibitor. For each assay, four substances and one reference were measured. The IC50 values determined in each assay were subsequently converted into values of rIP (relative Inhibitory Potency). […]

Point of comparison: CC(=O)N[C@H]1[C@H]([C@H](O)[C@H](O)CNC(=O)c2ccc(C(F)(F)F)cc2)O[C@@](OCCCSCCNC(=O)c2ccc(C(=O)NCCSCCCO[C@]3(C(=O)[O-])C[C@H](O)[C@@H](NC(C)=O)[C@H]([C@H](O)[C@H](O)CNC(=O)c4ccc(C(F)(F)F)cc4)O3)cc2)(C(=O)[O-])C[C@@H]1O.[Na+].[Na+] [Compound 71], rIP 32. Against it:
- CC(=O)N[C@H]1[C@H]([C@H](O)[C@H](O)CNC(=O)c2ccc(-c3ccccn3)cc2)O[C@@](OCCCSCCNC(=O)c2ccc(C(=O)NCCSCCCO[C@]3(C(=O)[O-])C[C@H](O)[C@@H](NC(C)=O)[C@H]([C@H](O)[C@H](O)CNC(=O)c4ccc(-c5ccccn5)cc4)O3)cc2)(C(=O)[O-])C[C@@H]1O.[Na+].[Na+] [Compound 77] — higher, 95
- CC(=O)N[C@H]1[C@H]([C@H](O)[C@H](O)CNC(=O)c2ccc(Oc3ccccc3)cc2)O[C@@](OCCCSCCNC(=O)c2ccc(C(=O)NCCSCCCO[C@]3(C(=O)[O-])C[C@H](O)[C@@H](NC(C)=O)[C@H]([C@H](O)[C@H](O)CNC(=O)c4ccc(Oc5ccccc5)cc4)O3)cc2)(C(=O)[O-])C[C@@H]1O.[Na+].[Na+] [Compound 63] — lower, 20
- CC(=O)N[C@H]1[C@H]([C@H](O)[C@H](O)CNC(=O)c2ccc3c(c2)C(=O)c2ccccc2-3)O[C@@](OCCCSCCNC(=O)c2ccc(C(=O)NCCSCCCO[C@]3(C(=O)[O-])C[C@H](O)[C@@H](NC(C)=O)[C@H]([C@H](O)[C@H](O)CNC(=O)c4ccc5c(c4)C(=O)c4ccccc4-5)O3)cc2)(C(=O)[O-])C[C@@H]1O.[Na+].[Na+] [Compound 78] — lower, 27
- CC(=O)N[C@H]1[C@H]([C@H](O)[C@H](O)CNC(=O)c2ccc(-c3ccccc3)cc2)O[C@@](OCCCSCCNC(=O)c2ccc(-c3ccc(C(=O)NCCSCCCO[C@]4(C(=O)[O-])C[C@H](O)[C@@H](NC(C)=O)[C@H]([C@H](O)[C@H](O)CNC(=O)c5ccc(-c6ccccc6)cc5)O4)cc3)cc2)(C(=O)[O-])C[C@@H]1O.[Na+].[Na+] [Compound 24] — higher, 75
- CC(=O)N[C@H]1[C@H]([C@H](O)[C@H](O)CNC(=O)c2ccc(-c3ccccc3)s2)O[C@@](OCCCSCCNC(=O)c2ccc(C(=O)NCCSCCCO[C@]3(C(=O)[O-])C[C@H](O)[C@@H](NC(C)=O)[C@H]([C@H](O)[C@H](O)CNC(=O)c4ccc(-c5ccccc5)s4)O3)cc2)(C(=O)[O-])C[C@@H]1O.[Na+].[Na+] [Compound 65] — higher, 106
- CC(=O)N[C@H]1[C@H]([C@H](O)[C@H](O)CNC(=O)c2ccc(-c3ccccc3)cc2)O[C@@](OCCCSCCNC(=O)c2ccc(NC(=O)CCSCCCO[C@]3(C(=O)[O-])C[C@H](O)[C@@H](NC(C)=O)[C@H]([C@H](O)[C@H](O)CNC(=O)c4ccc(-c5ccccc5)cc4)O3)cc2)(C(=O)[O-])C[C@@H]1O.[Na+].[Na+] [Compound 54] — higher, 7092
- CC(=O)N[C@H]1[C@H]([C@H](O)[C@H](O)CNC(=O)c2ccc(-c3ccccc3)cc2)O[C@@](OCCCSCCNC(=O)c2ccc(C(=O)NCCSCCCO[C@]3(C(=O)[O-])C[C@H](O)[C@@H](NC(C)=O)[C@H]([C@H](O)[C@H](O)CNC(=O)c4ccc(-c5ccccc5)cc4)O3)cc2)(C(=O)[O-])C[C@@H]1OC(=O)c1ccccc1.[Na+].[Na+] [Compound 147] — higher, 32069
- CC(=O)N[C@H]1[C@H]([C@H](O)[C@H](O)CNC(=O)c2ccc(-c3ccccc3)cc2)O[C@@](OCCCSCC(NC(=O)c2ccc(C(=O)NC(CSCCCO[C@]3(C(=O)[O-])C[C@H](O)[C@@H](NC(C)=O)[C@H]([C@H](O)[C@H](O)CNC(=O)c4ccc(-c5ccccc5)cc4)O3)C(=O)[O-])cc2)C(=O)[O-])(C(=O)[O-])C[C@@H]1O.[Na+].[Na+].[Na+].[Na+] (stereo partly shown) [Compound 149] — higher, 378
- CC(=O)N[C@H]1[C@H]([C@H](O)[C@H](O)CNC(=O)c2ccc(-c3ccc(C)cc3)cc2)O[C@@](OCCCSCCNC(=O)c2ccc(C(=O)NCCSCCCO[C@]3(C(=O)[O-])C[C@H](O)[C@@H](NC(C)=O)[C@H]([C@H](O)[C@H](O)CNC(=O)c4ccc(-c5ccc(C)cc5)cc4)O3)cc2)(C(=O)[O-])C[C@@H]1O.[Na+].[Na+] [Compound 76] — higher, 188
